Measurements reported in publication PMC9986545, “A novel oral formulation of the melanocortin-1 receptor agonist PL8177 resolves inflammation in preclinical studies of inflammatory bowel disease and is gut restricted in rats, dogs, and humans” (Frontiers in Immunology, 2023).

Columns and labels:
[1] = system: male Wistar rats with DSS-induced colitis; assay: DSS-induced colitis model in rats; assay type: in vivo
Method: . Groups of 6 male Wistar rats weighing 200 ± 20 g were used. All animals, except those in the sham group, received 5% DSS in the drinking water for 3 days, from day 1 to day 3, which was then changed to normal drinking water for the following 5 days in the study. The rats in the sham group were given drinking water only. […]. Mesalazine, which is approved for the treatment of IBD, including ulcerative colitis and Crohn’s disease, was administered orally as a positive control (300 mg/kg once daily) starting on day 4 through day 7 for a total of 4 consecutive days ( Figure 1 ). Colitis was assessed by disease activity index (diarrhea and rectal bleeding) during the study and by colon length shortening, colon weight gain, and colon histopathologic assessment after organ harvesting on day 8. At termination on day 8, 24 hours after the last dose, colon tissues were harvested, rinsed, photographed, weighed, and their lengths measured, and then cut into 2 halves 7 cm from the anus. One half of the harvested colon tissue was snap-frozen with liquid nitrogen for cytokine measurement (interferon [IFN]-γ, IL-1β, IL-6, and TNF-α). The other half of the colon tissue was further cut into 3 parts 2.5, 5, and 7 cm from the anus, fixed in 10% formalin, and kept in 70% ethanol for histopathology. The colon length and colon-to-body weight ratio was calculated for each animal according to the formula: colon weight (g)/body weight (g) × 100%. Colon tissues from rats (n=6 per treatment group) were drop-fixed in 4% paraformaldehyde embedded in paraffin, and sectioned at 4 µm. For histologic scoring, colon sections were stained with hematoxylin and eosin. For immunohistochemistry, colon sections were processed for antigen retrieval and immunostained with primary antibody: keratin 18 (K18) (1:400, Bioss, bs-5405R) and with a rabbit-specific biotin-conjugated secondary antibody from HistoWiz (HistoWiz, Inc. Brooklyn, NY). Representative images were taken at 10x magnification and quantification was performed using HistoWiz AI technology counting positive cells versus all nuclei, specifically in the crypts. All analyses were performed by blinded individuals.
Histologic criteria for the analysis of colitis included abnormalities of mucosal architecture, extent of inflammation, erosion or ulceration, epithelial regeneration, and the percentage involvement of the disease process. The scoring was based on the findings of independent observers by examining 3 colon sections from each animal. Scoring was from 0 = none to 4 = severe for each item, except for percentage involvement of disease process, which scored from 1 (1%–25%) to 4 (76%–100%). Total scores for colitis (total colitis index) were added, resulting in a combined histologic score range from 0 to 60 ( Table S1 ).
Descriptive statistics were used for assessment of colon damage scores (diarrhea, rectal bleeding, and colon weight gain) (DNBS and DSS rat studies) and for the distribution of PL8177 and main metabolite in the GI tract (Sprague-Dawley rat and dog studies). Mean ± SEM were determined, and 1-way analysis of variance followed by Dunnett’s test was applied for comparison between the vehicle and treated groups. Significance was set at the P<0.05 level.
Table S1.Scoring Table for Calculating Total Colitis Index Score in DSS Colitis –Induced Rats
Abnormalities of mucosal None (Norm al) 0
Minimal for focal, not exceeding laminar propria 1
Mild abnormality, cystic dilation/aberrant crypts 2
Moderate or multifocal abnormalities 3
Severe, entire crypt and epithelium lost 4
Extent of inflammation None 0
Minimal for focal, scatter ed calls (<10 %) 1
Moderate, inflammatory cells extending into the submucosa 3
Severe, transmural leukocytic infiltrate from mucosa to serosa 4
Erosion or ulceration No erosion, ulceration, or granulation tissue 0
Minimal or focal, not exceeding lamina propri a 1
Severe ulceration or granulation tissue 4
Epithelial regression Complete regeneration or normal tissue 0 […]

mice with colitis = system: mice with colitis; parameters: method as in PMID 9145424; conditions: twice-daily α-MSH exposure; cited from earlier work
[2] = Mesalazine 300 mg/kg QD oral, days 4-7, day 8, n=6

Molecule	% Decrease in Colon Weight vs Vehicle Control ([1]; Mesalazine 300 mg/kg QD oral, days 4-7, day 8) [%]	Mean Colon Length (SEM) [1, 2]	Mean Colon Weight (SEM) [1, 2]	Mean Colon Weight/100 g Body Weight (SEM) [1, 2]	Net Increase (SEM) of colon weight/100 g body weight [1, 2]	Mean Body Weight (SEM) (Day 8) ([1]; Mesalazine 300 mg/kg QD oral, days 4-7, n=6)	Number of K18 positive cells in colon crypts (immunohistochemistry) vs vehicle ([1]; PL8177 (100 µg) or mesalazine, day 8)	Total colitis score (total colitis index), mean [SD] ([1]; mesalazine 300 mg/kg QD oral, histology day 8, n=6, range 0-60)	Reduction in fecal blood (mice with colitis) [%]
Nc1ccc(O)c(C(=O)O)c1 [Mesalazine]	35	18.6 (0.5) cm	0.570 (0.031) g	0.235 (0.012)	0.073 (0.012)	242.5 (3.0) g	increased number of K18 positive cells, similar to sham	28.5 [7.71]	
α-MSH									80
